According to US11634423B2, “Substituted pyrazolo[1,5-a]pyrimidines as inhibitors of interferon signaling” (Eli Lilly and Company, priority 2020, dated 2023):

Legend:
[1] = target: T1, pseudokinase domain (JH2) of human TYK2 (Homo sapiens, UniProt P29597); test: TYK2-JH2 Tracer Binding Assay; conditions: TR-FRET tracer displacement, His-tagged TYK2-JH2 0.200 nM, Tracer 2.00 nM, 30 minutes
T1 construct: The pseudokinase domain (JH2) of human JAK; made in house
Source text: The pseudokinase domain (JH2) of human JAK (Janus family of cytoplasmic tyrosine kinases) family tyrosine kinase 2 (TYK2) (Genbank NP_003322) with an N-terminal His6 tag is expressed in baculovirus and purified by HisPur Ni-NTA affinity and Superdex 200 size-exclusion chromatography. The compound prepared in Preparation 17, a conjugate of Alexa Fluor 647 dye (Thermo Fisher Scientific) and a suitable TYK2 JH2 binder, is referred to herein as “the Tracer”. A 3 fold, 10 point serial dilution of compound (Examples 1, 2, and 3) are prepared in 100% DMSO and 50 nL/well transferred to a Proxiplate-384F white plate (PerkinElmer 6008280) using acoustic liquid handling. Control wells used to determine percent inhibition contained 100% DMSO (50 nL) and either assay buffer containing the Tracer (2.00 nM final concentration) (min, low FRET) or diluted TYK2-JH2 enzyme (0.200 nM final concentration) and the Tracer (2.00 nM final concentration) (max, high FRET).
5.0 μL of His-tagged TYK2-JH2 (0.402 nM) and LanthaScreen Eu-anti-HIS Ab (4.02 nM, LifeTech, PV5597) in assay buffer (50 mM HEPES […], 10 mM magnesium chloride, 1 mM ethylene glycol-bis(β-aminoethyl ether)-N,N,N′,N′-tetraacetic acid, 0.01% Brij-35 and Milli-Q) water is added to the Proxiplate-384 plate containing the 50 nL of diluted compound and control wells. 5.0 μL of the Tracer (2.00 nM final concentration) in assay buffer is added to the plate and allowed to equilibrate for 30 minutes at ambient temperature. After 30 minutes, the plate is counted on a PerkinElmer Envision with the following settings: Excitation (340 nm), Tracer Emission (665 nm) and LanthaScreen Eu-anti-His Antibody Emission (615 nm). The ratio of Tracer Emission (665 nm) over LanthaScreen Eu-anti-His Antibody Emission (615 nm) is determined. Percent inhibition of ratio at each inhibitor concentration is calculated using the max and min control wells and fit to the four parameter nonlinear logistic equation in GeneData Screener® to give an IC50 for the compounds tested.

[2] = tested on: IFNα signaling through pSTAT1 in TF1 cells; test: Inhibition of IFNα signaling through pSTAT1 in TF1 cells; assay type: cell-based; conditions: Homo sapiens, TF-1, 1 hour preincubation, 10 ng/mL IFNα2 for 20 minutes, p-Stat1 (Tyr701) AlphaLISA, geometric mean (SEM), read-out: IFNα inh IC50
Protocol: TF1 cells (ATCC, CL-2003) are grown in RPMI 1640 (GIBCO) supplemented with 10% dialyzed FBS, 0.1 mg/mL Ampicillin and 2 ng/mL granulocyte macrophage colony stimulating factor. TF1 cells (100 K per well) are seeded in a 96-well poly-D-lysine coated plates in serum-free DMEM and incubated overnight at 37° C. under 5% CO2. Example 1 is serially diluted in DMSO, added to the cells, and incubated at 37° C. for 1 hour. Cells are then stimulated with 10 ng/mL IFNα2 at 37° C. for 20 minutes. After removing the medium, the cells are lysed in buffer containing Halt protease and phosphatase inhibitor cocktail (Thermo Scientific #78441) at ambient temperature for 30 minutes. The amount of p-Stat1 (Tyr701) is quantified as light emission at 615 nm using the AlphaLISA SureFire Ultra p-Stat1 (Tyr701) assay kit (Perkin Elmer #ALSU-PST1-A50K) following the vendor's recommended protocol. Percent inhibition at each inhibitor concentration is calculated and fit to the four parameter nonlinear logistic equation using Genedata Screener© to give an IC50 for the compounds tested expressed as GeoMetric means with the standard error of the mean (SEM).

[3] = tested on: IL-23 signaling (STAT3 phosphorylation) in Kit225 cells; test: IL23 pSTAT3 AlphaLISA Assay; assay type: cell-based; conditions: 0.5 h, 1 hour preincubation, IL-23 25 ng/mL for 30 minutes, in presence of IL-2, relative IC50, geometric mean (SEM), read-out: IL-23 inh IC50
Protocol: IL-2-dependent Kit225 cells (University of Texas MD Anderson Cancer Center) expressing endogenous IL-23 receptors are stably transduced with the Lenti STAT3 Reporter linked to firefly luciferase (SABiosciences CLS-6028L). These cells are used to monitor TYK2 activity by quantifying gene expression caused by STAT3 phosporylation following induction by IL-23 in the presence of IL-2 using AlphaLISA technology (TGR Biosciences ALSU-TST3-A50K). The cells are grown in RPMI 1640 (Gibco 22400) supplemented with 10% FBS (Invitrogen 10082), 1× Pen/Strep (Gibco 15140-122), 200 ng/ml Puromycin (Sigma P9620), and fresh 10 ng/ml recombinant human IL-2 (R&D Systems 202-IL-50).
For assay preparation, cells are dispensed into Biocoat black poly-d-lysine coated clear bottom 384-well plates (Becton Dickinson Bio-Coat 35-4640) in DMEM (Sigma D5796) at 300,000 cells/well and allowed to incubate overnight at 37° C. Compounds solubilized in DMSO are serially diluted 1:3 to produce a 10-point concentration response curve (final DMSO=0.1%). Cells are pre-incubated with Example 1 for 1 hour at 37° C., then stimulated with IL-23 (25 ng/mL final) for 30 minutes. After centrifugation at 2000 rpm for 10 minutes, cell pellets are lysed with a mixture of 1:1 lysis buffer (TGR Biosciences) and Halt Protease & Phosphatase inhibitor cocktail (Thermo Scientific 1861281) for 30 minutes. The AlphaLISA reaction is performed following the vendor's recommended protocol, and the luciferase levels are measured using an Envision plate reader (Perkin Elmer). The relative IC50 is calculated using a 4-parameter nonlinear logistic equation (GeneData Screener 13.0.5) to give an IC50 for the compounds tested expressed as GeoMetric means with the standard error of the mean (SEM).

T1 sequence (P29597 589-875 limits assumed): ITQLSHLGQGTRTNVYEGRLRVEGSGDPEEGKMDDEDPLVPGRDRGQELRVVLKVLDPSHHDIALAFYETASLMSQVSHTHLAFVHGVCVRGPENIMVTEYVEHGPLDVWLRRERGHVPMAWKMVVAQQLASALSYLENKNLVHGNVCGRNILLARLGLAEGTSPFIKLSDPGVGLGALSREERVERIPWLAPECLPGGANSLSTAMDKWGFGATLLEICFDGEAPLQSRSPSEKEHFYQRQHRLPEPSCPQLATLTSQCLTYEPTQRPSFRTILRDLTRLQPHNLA

IC50 [1]	IC50 [2]	IC50 [3]	SMILES
< 0.000254 µM	0.112 µM	0.065 µM	CNc1cc(Nc2cccn(-c3ccc(C)cn3)c2=O)nc2c(C(=O)N[C@@H]3CCN(C)C3=O)cnn12 [Example 1, 7-(Methylamino)-N-[(3R)-1-methyl-2-oxo-pyrrolidin-3-yl]-5-[[1-(5-methyl-2-pyridyl)-2-oxo-3-pyridyl]amino]pyrazolo[1,5-a]pyrimidine-3-carboxamide]
< 0.000254 µM	0.206 µM	0.101 µM	CNc1cc(Nc2cccn(-c3cccc(C)n3)c2=O)nc2c(C(=O)N[C@@H]3CCN(C)C3=O)cnn12 [Example 2, 7-(Methylamino)-N-[(3R)-1-methyl-2-oxo-pyrrolidin-3-yl]-5-[[1-(6-methyl-2-pyridyl)-2-oxo-3-pyridyl]amino]pyrazolo[1,5-a]pyrimidine-3-carboxamide]
< 0.000254 µM	0.106 µM	0.101 µM	CNc1cc(Nc2cccn(-c3ccccn3)c2=O)nc2c(C(=O)N[C@@H]3CCN(C)C3=O)cnn12 [Example 3, 7-(Methylamino)-N-[(3R)-1-methyl-2-oxo-pyrrolidin-3-yl]-5-[[2-oxo-1-(2-pyridyl)-3-pyridyl]amino]pyrazolo[1,5-a]pyrimidine-3-carboxamide]
